Broadly, the half-life is the time needed for the level to fall by half in the phase considered. The low end stands for rapid decline, the high end for slow decline.

This note sets out measurements from ChEMBL document CHEMBL1138891, “3-(4-Piperidinyl)indoles and 3-(4-piperidinyl)pyrrolo-[2,3-b]pyridines as ligands for the ORL-1 receptor” (Bioorg Med Chem Lett, 2006).

Series [1] in a line: Stability in human liver microsome after 60 mins. Type of series: ADME. To be noted: liver microsomes, read-out: Stability.
A short description of series [2]: Half life in human liver microsomes. Type of series: ADME, Microsome. (In general: Liver microsomes are vesicles of endoplasmic reticulum, rich in cytochrome P450 enzymes.)

As for `c1cc2c3c(cccc3c1)C(N1CCC(c3c[nH]c4ncccc34)CC1)C2` (configuration not stated), the remaining at 1 h in series [1] came out at 14%. This compound also had a half-life in series [2] of 15 min.
